Experimental data: ChEMBL document CHEMBL1201862, “PubChem BioAssay data set” (2004)
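Values below derive from 48-hour exposures of cells grown in 96-well plates, with endpoints linearly interpolated between the two concentrations bracketing the appropriate inhibition level. GI50: concentration for 50% inhibition of growth.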 Activity calls are given as the source filed them. Cut-off read from the data, not from the text of the source: active = GI50 up to about 1.1 µM and inactive = higher.

What was measured:
Test in all cases: NCI-60 cell line screen, 48 h
EKVX = tested on: EKVX
OVCAR-4 = tested on: OVCAR-4
COLO 205 = tested on: COLO 205
786-0 = tested on: 786-0
RPMI-8226 = tested on: RPMI-8226
NCI-H460 = tested on: NCI-H460
Malme-3M = tested on: Malme-3M
SR = tested on: SR
K562 = tested on: K562
SK-MEL-2 = tested on: SK-MEL-2
SNB-75 = tested on: SNB-75
KM-20L2 = tested on: KM-20L2
SF-539 = tested on: SF-539
NCI-H23 = tested on: NCI-H23
DMS-114 = tested on: DMS-114
HCT-15 = tested on: HCT-15
MOLT-4 = tested on: MOLT-4
LOX IMVI = tested on: LOX IMVI
OVCAR-5 = tested on: OVCAR-5
HL-60 = tested on: HL-60
CCRF-CEM = tested on: CCRF-CEM
SK-MEL-5 = tested on: SK-MEL-5
UO-31 = tested on: UO-31
OVCAR-3 = tested on: OVCAR-3
HOP-62 = tested on: HOP-62
SK-MEL-28 = tested on: SK-MEL-28
M19-MEL = tested on: M19-MEL
DMS-273 = tested on: DMS-273
NCI-H226 = tested on: NCI-H226
TK-10 = tested on: TK-10
UACC-62 = tested on: UACC-62
U-251 = tested on: U-251
ACHN = tested on: ACHN
SF-268 = tested on: SF-268
LXFL 529 = tested on: LXFL 529
XF498 = tested on: XF498
OVCAR-8 = tested on: OVCAR-8
NCI-H522 = tested on: NCI-H522
SNB-78 = tested on: SNB-78
A549 = tested on: A549
RXF 393 = tested on: RXF 393
SN12C = tested on: SN12C
KM12 = tested on: KM12
HT-29 = tested on: HT-29
SF-295 = tested on: SF-295
IGROV-1 = tested on: IGROV-1
HCT-116 = tested on: HCT-116
M14 = tested on: M14
SNB-19 = tested on: SNB-19
SW-620 = tested on: SW-620

Cn1c(=O)c2c(ncn2CCCCn2ccnc2[N+](=O)[O-])n(C)c1=O
GI50 (EKVX): > 100 µM (inactive) | GI50 (OVCAR-4): > 100 µM (inactive) | GI50 (COLO 205): > 100 µM (inactive) | GI50 (786-0): > 100 µM (inactive) | GI50 (RPMI-8226): > 100 µM (inactive) | GI50 (NCI-H460): > 100 µM (inactive) | GI50 (Malme-3M): > 100 µM (inactive) | GI50 (SR): > 100 µM (inactive) | GI50 (K562): > 100 µM (inactive) | GI50 (SK-MEL-2): > 100 µM (inactive) | GI50 (SNB-75): 38.3 µM (inactive) | GI50 (KM-20L2): > 100 µM (inactive) | GI50 (SF-539): > 100 µM (inactive) | GI50 (NCI-H23): > 100 µM (inactive) | GI50 (DMS-114): > 100 µM (inactive) | GI50 (HCT-15): > 100 µM | GI50 (MOLT-4): > 100 µM (inactive) | GI50 (LOX IMVI): > 100 µM (inactive) | GI50 (OVCAR-5): > 100 µM (inactive) | GI50 (HL-60): > 100 µM (inactive) | GI50 (CCRF-CEM): > 100 µM (inactive) | GI50 (SK-MEL-5): > 100 µM (inactive) | GI50 (UO-31): > 100 µM (inactive) | GI50 (OVCAR-3): > 100 µM (inactive) | GI50 (HOP-62): > 100 µM (inactive) | GI50 (SK-MEL-28): > 100 µM (inactive) | GI50 (M19-MEL): > 100 µM (inactive) | GI50 (DMS-273): > 100 µM (inactive) | GI50 (NCI-H226): > 100 µM (inactive) | GI50 (TK-10): > 100 µM (inactive) | GI50 (UACC-62): > 100 µM (inactive) | GI50 (U-251): > 100 µM (inactive) | GI50 (ACHN): > 100 µM (inactive) | GI50 (SF-268): > 100 µM (inactive) | GI50 (LXFL 529): > 100 µM (inactive) | GI50 (XF498): > 100 µM (inactive) | GI50 (OVCAR-8): > 100 µM (inactive) | GI50 (NCI-H522): > 100 µM (inactive) | GI50 (SNB-78): > 100 µM (inactive) | GI50 (A549): > 100 µM (inactive) | GI50 (RXF 393): > 100 µM (inactive) | GI50 (SN12C): > 100 µM (inactive) | GI50 (KM12): > 100 µM (inactive) | GI50 (HT-29): > 100 µM (inactive) | GI50 (SF-295): > 100 µM (inactive) | GI50 (IGROV-1): > 100 µM (inactive) | GI50 (HCT-116): > 100 µM (inactive) | GI50 (M14): > 100 µM (inactive) | GI50 (SNB-19): > 100 µM (inactive) | GI50 (SW-620): > 100 µM (inactive)
